IC50 data for ten molecules are collected here from patent publication US20240383875A1, “Benzimidazole Pyridine Derivatives” (Hoffmann-La Roche Inc., priority 2022, published 2024).

Common to all, as to assay type: biochemical
One assay concerns the target SIK1 (Homo sapiens, UniProt P57059). Put plainly: Enzymatic activity assay SIK1, RapidFire mass spectrometry (phosphorylation of CHK-peptide). The note with it: RapidFire MS, inhibition of SIK1; read-out: SIK1 RF IC50. In short, it runs like this: (§1)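 Human SIK1/2/3, 5/0.5/1.5 nM; 12.5 mM HEPES pH 7.0, 10 mM Mg acetate, 0.005% BSA. 30 min cpd pre-inc, + CHK-peptide (10 μM soln) + ATP (100 μM soln), 45 min RT. Formic acid stop; RF-MS phospho ratio; IC50.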

The target in the next assay is SIK2 (Homo sapiens, UniProt Q9H0K1). Put plainly: Enzymatic activity assay SIK2, RapidFire mass spectrometry (phosphorylation of CHK-peptide). The note with it: RapidFire MS, inhibition of SIK2; read-out: SIK2 RF IC50. In short, it runs like this:
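Read-out is the summed phospho-species fraction of CHK-peptide by RapidFire mass spectrometry, normalized between DMSO and 1 μM YKL-05-099. The reaction used 0.5 nM SIK2, 100 μM ATP and 10 μM peptide solutions in HEPES pH 7.0/10 mM magnesium acetate for 45 min at ambient temperature.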

The target of a further assay is SIK3 (Homo sapiens, UniProt Q9Y2K2). Put plainly: Enzymatic activity assay SIK3, RapidFire mass spectrometry (phosphorylation of CHK-peptide). The conditions noted are these: RapidFire MS, inhibition of SIK3; read-out: SIK3 RF IC50. In short, it runs like this:
as §1

Chain of SIK1 (P57059 whole entry): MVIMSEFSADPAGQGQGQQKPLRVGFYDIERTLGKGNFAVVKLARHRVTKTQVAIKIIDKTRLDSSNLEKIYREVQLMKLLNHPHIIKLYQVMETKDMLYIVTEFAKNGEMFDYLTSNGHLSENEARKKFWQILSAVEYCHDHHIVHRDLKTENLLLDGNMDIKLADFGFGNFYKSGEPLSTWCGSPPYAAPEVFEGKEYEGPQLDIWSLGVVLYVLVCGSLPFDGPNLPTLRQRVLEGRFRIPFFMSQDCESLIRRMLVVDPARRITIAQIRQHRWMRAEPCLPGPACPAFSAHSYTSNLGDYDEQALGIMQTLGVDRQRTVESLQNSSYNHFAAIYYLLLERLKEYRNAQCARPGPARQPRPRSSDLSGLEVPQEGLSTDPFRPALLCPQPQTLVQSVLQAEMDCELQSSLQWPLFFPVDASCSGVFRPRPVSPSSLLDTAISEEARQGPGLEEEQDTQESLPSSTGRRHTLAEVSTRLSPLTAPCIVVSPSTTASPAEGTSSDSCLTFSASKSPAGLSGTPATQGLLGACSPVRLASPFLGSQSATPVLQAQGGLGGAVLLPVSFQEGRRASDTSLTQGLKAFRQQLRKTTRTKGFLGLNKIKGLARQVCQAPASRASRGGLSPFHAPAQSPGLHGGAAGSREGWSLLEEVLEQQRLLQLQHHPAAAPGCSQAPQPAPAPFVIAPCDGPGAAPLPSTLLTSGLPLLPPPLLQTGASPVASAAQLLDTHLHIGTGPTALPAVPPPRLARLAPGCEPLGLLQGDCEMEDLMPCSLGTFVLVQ
Chain of SIK2 (Q9H0K1 whole entry): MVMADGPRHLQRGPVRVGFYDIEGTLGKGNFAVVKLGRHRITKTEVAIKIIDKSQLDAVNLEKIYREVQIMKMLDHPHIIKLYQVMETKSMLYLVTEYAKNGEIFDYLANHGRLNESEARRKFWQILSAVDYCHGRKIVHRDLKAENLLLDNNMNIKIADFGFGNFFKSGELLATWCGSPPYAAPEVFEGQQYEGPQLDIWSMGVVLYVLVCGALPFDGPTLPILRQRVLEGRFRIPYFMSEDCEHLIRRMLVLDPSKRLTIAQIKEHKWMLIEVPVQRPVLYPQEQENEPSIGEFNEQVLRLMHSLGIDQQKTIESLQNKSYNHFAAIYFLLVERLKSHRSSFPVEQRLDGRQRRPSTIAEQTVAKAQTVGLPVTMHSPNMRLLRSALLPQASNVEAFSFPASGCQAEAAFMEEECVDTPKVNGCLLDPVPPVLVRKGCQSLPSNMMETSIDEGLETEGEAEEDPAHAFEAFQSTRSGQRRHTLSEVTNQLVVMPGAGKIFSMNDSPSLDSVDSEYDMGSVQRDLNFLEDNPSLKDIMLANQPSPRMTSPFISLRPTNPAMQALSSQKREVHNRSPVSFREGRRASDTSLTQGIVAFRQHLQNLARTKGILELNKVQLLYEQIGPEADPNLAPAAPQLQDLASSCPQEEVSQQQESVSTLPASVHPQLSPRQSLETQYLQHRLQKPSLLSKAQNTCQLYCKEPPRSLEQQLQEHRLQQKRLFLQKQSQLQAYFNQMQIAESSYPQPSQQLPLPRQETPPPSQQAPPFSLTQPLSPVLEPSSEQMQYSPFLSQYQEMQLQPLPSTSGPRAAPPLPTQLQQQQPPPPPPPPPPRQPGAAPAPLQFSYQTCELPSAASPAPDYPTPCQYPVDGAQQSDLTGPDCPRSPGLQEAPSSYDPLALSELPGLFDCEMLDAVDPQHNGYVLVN
Chain of SIK3 (Q9Y2K2 whole entry): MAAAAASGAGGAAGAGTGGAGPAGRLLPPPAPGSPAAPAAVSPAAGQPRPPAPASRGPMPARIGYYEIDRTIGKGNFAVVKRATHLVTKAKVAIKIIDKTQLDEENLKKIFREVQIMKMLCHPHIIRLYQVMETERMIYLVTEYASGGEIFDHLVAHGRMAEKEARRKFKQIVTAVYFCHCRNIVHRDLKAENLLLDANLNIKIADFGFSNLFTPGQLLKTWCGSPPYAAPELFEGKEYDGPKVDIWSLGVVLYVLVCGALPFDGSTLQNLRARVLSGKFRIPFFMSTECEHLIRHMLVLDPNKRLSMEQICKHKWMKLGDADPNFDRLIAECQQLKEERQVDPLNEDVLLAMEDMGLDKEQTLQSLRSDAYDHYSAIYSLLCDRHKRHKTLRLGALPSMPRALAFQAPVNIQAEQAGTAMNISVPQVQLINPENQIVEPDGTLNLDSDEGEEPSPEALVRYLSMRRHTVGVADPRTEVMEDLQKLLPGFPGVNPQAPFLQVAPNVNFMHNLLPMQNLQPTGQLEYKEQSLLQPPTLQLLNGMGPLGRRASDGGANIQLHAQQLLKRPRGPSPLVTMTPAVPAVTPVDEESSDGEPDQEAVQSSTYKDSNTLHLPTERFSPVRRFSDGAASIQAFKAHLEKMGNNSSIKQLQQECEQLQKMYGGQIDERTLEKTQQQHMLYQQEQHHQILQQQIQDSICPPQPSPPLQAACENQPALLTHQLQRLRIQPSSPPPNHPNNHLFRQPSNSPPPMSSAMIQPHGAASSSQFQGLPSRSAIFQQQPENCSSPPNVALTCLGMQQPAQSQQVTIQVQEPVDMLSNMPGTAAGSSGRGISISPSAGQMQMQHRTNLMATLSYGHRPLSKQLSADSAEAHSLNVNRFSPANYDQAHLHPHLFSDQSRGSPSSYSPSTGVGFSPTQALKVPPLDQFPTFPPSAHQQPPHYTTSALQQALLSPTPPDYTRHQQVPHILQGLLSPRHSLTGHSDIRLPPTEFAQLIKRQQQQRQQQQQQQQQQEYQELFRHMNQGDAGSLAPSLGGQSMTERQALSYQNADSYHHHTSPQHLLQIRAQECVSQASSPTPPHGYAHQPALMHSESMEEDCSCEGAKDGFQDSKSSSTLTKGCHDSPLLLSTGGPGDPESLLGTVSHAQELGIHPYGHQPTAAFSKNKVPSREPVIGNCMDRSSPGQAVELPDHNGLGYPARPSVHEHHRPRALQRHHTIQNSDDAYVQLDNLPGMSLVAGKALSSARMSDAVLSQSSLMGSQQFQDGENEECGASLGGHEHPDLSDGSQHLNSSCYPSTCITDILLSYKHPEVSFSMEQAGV

Turning to `Cc1ccc(Nc2ccc3c(c2)ncn3-c2ccc(C(C)O)c(-c3nnn(CC(F)(F)F)c3C)n2)nn1` (stereo not drawn) [Example 311, 1-[6-[5-[(6-methylpyridazin-3-yl)amino]benzimidazol-1-yl]-2-[5-methyl-1-(2,2,2-trifluoroethyl)triazol-4-yl]-3-pyridyl]ethanol], the 50% inhibitory concentration (IC50) on SIK1 came to 17 nM; on SIK2, 0.3 nM; at SIK3, 0.3 nM.
`Cc1cc(OC(F)F)nn1-c1nc(-n2cnc3cc(Nc4ccc(C(F)F)nn4)ccc32)ccc1C(C)O` (stereo not drawn) [Example 367, 1-[2-[3-(difluoromethoxy)-5-methylpyrazol-1-yl]-6-[5-[[6-(difluoromethyl)pyridazin-3-yl]amino]benzimidazol-1-yl]pyridin-3-yl]ethanol]: the values for the IC50 at SIK1, on SIK2 and at SIK3 were 88 nM, 1.5 nM and 0.8 nM, respectively.
On to `Cc1ccc(Nc2ccc3c(c2)ncn3-c2ccc(C(C)O)c(OC3CNCC3(F)F)n2)nn1` (stereo not drawn) [Example 393, 1-[2-(4,4-difluoropyrrolidin-3-yl)oxy-6-[5-[(6-methylpyridazin-3-yl)amino]benzimidazol-1-yl]-3-pyridyl]ethanol], for which the concentration for half-maximal inhibition (IC50) stood at 750 nM on SIK1, 25.2 nM at SIK2 and 5.5 nM at SIK3.
Turning to `COc1cc2ncn(-c3ccc(CO)c(N4CCOCC4)n3)c2cc1OC` [Example 26, (6-(5,6-Dimethoxy-1H-benzo[d]imidazol-1-yl)-2-morpholinopyridin-3-yl)methanol], the values for the concentration for half-maximal inhibition (IC50) on SIK1, on SIK2 and on SIK3 were 806 nM, 699 nM and 1440 nM, respectively.
As for `Cc1ccc(Nc2ccc3ncn(-c4ccc(C(C)O)c(N5CCN(CC(F)(F)F)C(=O)C5)n4)c3c2)nn1` (stereo not drawn) [Example 137, 4-[3-(1-Hydroxyethyl)-6-[6-[(6-methylpyridazin-3-yl)amino]benzimidazol-1-yl]-2-pyridyl]-1-(2,2,2-trifluoroethyl)piperazin-2-one], the concentration for half-maximal inhibition (IC50) came out at 5410 nM on SIK1, 1640 nM at SIK2 and 746 nM on SIK3.
With `Cc1cc(C#N)nn1-c1nc(-n2cnc3cc(OC4CCN(C5COC5)CC4)ccc32)ccc1C(C)O` (stereo not drawn) [Example 113, 1-[3-(1-Hydroxyethyl)-6-[5-[[1-(oxetan-3-yl)-4-piperidyl]oxy]benzimidazol-1-yl]-2-pyridyl]-5-methyl-pyrazole-3-carbonitrile], the half-maximal inhibitory concentration (IC50) on SIK1 stood at 319 nM; at SIK2 it was 76 nM; at SIK3, 34.1 nM.
In the case of `Cc1ccc(Nc2ccc3c(c2)ncn3-c2ccc(C(C)O)c(-n3nc(C#N)c4c3C(F)(F)CNC4)n2)nn1` (stereo not drawn) [Example 305, 7,7-difluoro-1-[3-(1-hydroxyethyl)-6-[5-[(6-methylpyridazin-3-yl)amino]benzimidazol-1-yl]-2-pyridyl]-5,6-dihydro-4~{H}-pyrazolo[4,3-c]pyridine-3-carbonitrile], the IC50 at SIK1 was 155 nM; at SIK2, 1.7 nM; at SIK3, 2.1 nM.
The corresponding values for `Cc1ccc(Nc2ccc3c(c2)ncn3-c2ccc(C(C)O)c(-n3cc(C#N)nn3)n2)nn1` (stereo not drawn) [Example 253, 1-[3-(1-Hydroxyethyl)-6-[5-[(6-methylpyridazin-3-yl)amino]benzimidazol-1-yl]-2-pyridyl]triazole-4-carbonitrile] are 8970 nM, 161 nM and 34.5 nM.
Turning to `Cc1ccc(Nc2ccc3c(c2)ncn3-c2ccc(C(C)O)c(-n3nc(C(F)(F)F)c4c3CCNC4)n2)nn1` (stereo not drawn) [Example 97, 1-[6-[5-[(6-Methylpyridazin-3-yl)amino]benzimidazol-1-yl]-2-[3-(trifluoromethyl)-4,5,6,7-tetrahydropyrazolo[4,3-c]pyridin-1-yl]-3-pyridyl]ethanol], the IC50 at SIK1 is 7 nM; at SIK2, 0.2 nM; on SIK3, 0.5 nM.
The like results for `Cc1ccc(Nc2ccc3c(c2)ncn3-c2ccc(C(C)O)c(-n3ccc(C#N)n3)n2)nn1` (stereo not drawn) [Example 115, 1-[3-(1-Hydroxyethyl)-6-[5-[(6-methylpyridazin-3-yl)amino]benzimidazol-1-yl]-2-pyridyl]pyrazole-3-carbonitrile] were, in that order, 283 nM, 3.9 nM and 0.7 nM.
